# Article PMC8942544, “Design and synthesis of benzodiazepines as brain penetrating PARP-1 inhibitors” (Journal of Enzyme Inhibition and Medicinal Chemistry, 2022)
# Target: T1, PARP-1 (Homo sapiens, UniProt P09874)
# T1 construct: purchased BPS Bioscience 80580
# Test: PARP-1 enzyme inhibition assay (BPS Bioscience PARP Colorimetric Assay Kit)
# Format: biochemical
# Settings: compound concentration 50 nM; three independent tests
# Protocol: All target compounds were evaluated for PARP-1 enzyme inhibition activity at the concentration of 50 nM determined by previous pre-experiments.
# The ability of the compounds to inhibit PARP-1 enzyme activity was assessed using BPS Bioscience's PARP Colorimetric Assay Kit (BPS Bioscience, Catalog # 80580). PARP-1 is known to catalyse the NAD-dependent addition of poly(ADP-ribose) to histones. The PARP-1 assay kit comes in a convenient 96-well format, with purified PARP-1 enzyme, histone mixture, activated DNA, and PARP-1 assay buffer. The key to the PARP-1 Colorimetric Activity Assay is the biotinylated substrate. With this kit, only three simple steps are required for PARP-1 reactions. First, histone proteins are coated on a 96-well plate. Next, the PARP-1 biotinylated substrate is incubated with an assay buffer that contains the PARP-1 enzyme. Finally, the plate is treated with streptavidin-HRP followed by the addition of the colorimetric HRP substrate to produce colour that can then be measured using a UV/Vis spectrophotometer microplate reader. IC50 values were calculated using GraphPad Prism5 software.
# T1 sequence (P09874 whole entry): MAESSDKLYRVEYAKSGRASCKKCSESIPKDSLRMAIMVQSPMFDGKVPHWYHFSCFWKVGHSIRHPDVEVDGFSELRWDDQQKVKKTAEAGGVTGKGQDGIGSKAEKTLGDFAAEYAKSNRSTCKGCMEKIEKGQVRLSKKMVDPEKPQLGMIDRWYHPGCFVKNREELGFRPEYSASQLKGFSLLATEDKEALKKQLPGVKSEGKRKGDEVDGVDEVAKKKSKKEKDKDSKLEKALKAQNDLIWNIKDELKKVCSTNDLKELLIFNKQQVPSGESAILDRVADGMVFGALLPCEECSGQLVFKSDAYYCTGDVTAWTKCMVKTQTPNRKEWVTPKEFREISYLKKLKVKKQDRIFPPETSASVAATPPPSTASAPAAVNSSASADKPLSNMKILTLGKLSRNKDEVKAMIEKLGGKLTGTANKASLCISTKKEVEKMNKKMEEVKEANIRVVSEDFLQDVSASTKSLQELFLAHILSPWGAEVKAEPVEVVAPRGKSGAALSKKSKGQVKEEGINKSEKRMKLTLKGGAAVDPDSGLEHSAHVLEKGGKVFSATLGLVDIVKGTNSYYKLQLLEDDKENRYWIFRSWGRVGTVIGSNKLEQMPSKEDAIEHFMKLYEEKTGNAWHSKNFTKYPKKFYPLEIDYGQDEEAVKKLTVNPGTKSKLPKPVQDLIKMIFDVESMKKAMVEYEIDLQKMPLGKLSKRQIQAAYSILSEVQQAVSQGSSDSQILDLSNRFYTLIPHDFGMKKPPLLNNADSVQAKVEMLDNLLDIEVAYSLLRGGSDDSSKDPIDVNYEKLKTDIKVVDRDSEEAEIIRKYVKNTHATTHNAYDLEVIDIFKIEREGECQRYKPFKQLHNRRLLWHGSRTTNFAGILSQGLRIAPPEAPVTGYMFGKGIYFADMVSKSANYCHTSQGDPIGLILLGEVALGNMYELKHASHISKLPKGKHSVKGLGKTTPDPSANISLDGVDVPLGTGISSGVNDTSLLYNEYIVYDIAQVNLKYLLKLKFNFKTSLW
row,SMILES,inhibition at 0.05 µM [%]
1,O=C1NCCNc2ccccc21 [Compound H1],6.2 ± 5.2
2,O=C1NCCCc2ccccc21 [Compound H2],5.2 ± 3.1
3,O=C1CCNc2ccccc2N1 [Compound H3],3.6 ± 2.5
4,"O=C1NCC(c2ccccc2)=Nc2ccccc21 [Compound H4, 2-Phenyl-3,4-dihydro-5H-benzo[e][1,4]diazepin-5-one]",28.8 ± 3.4
5,"O=C1NCC(c2cccc(F)c2)=Nc2ccccc21 [Compound H9, 2-(3-Fluorophenyl)-3,4-dihydro-5H-benzo[e][1,4]diazepin-5-one]",36.6 ± 3
6,"O=C1NCC(c2cccc(Cl)c2)=Nc2ccccc21 [Compound H11, 2-(3-Chlorophenyl)-3,4-dihydro-5H-benzo[e][1,4]diazepin-5-one]",28.7 ± 2.6
7,"N#Cc1ccc(C2=Nc3ccccc3C(=O)NC2)cc1 [Compound H12, 4-(5-Oxo-4,5-dihydro-3H-benzo[e][1,4]diazepin-2-yl)benzonitrile]",15.7 ± 4.1
8,"O=C1NCC(c2ccc(F)cc2F)=Nc2ccccc21 [Compound H14, 2-(2,4-Difluorophenyl)-3,4-dihydro-5H-benzo[e][1,4]diazepin-5-one]",36.1 ± 3.6
9,"O=C1NCC(c2cc(F)cc(F)c2)=Nc2ccccc21 [Compound H15, 2-(3,5-Difluorophenyl)-3,4-dihydro-5H-benzo[e][1,4]diazepin-5-one]",36.9 ± 1.4
10,"COc1ccc(C2=Nc3ccccc3C(=O)NC2)cc1OC [Compound H16, 2-(3,4-Dimethoxyphenyl)-3,4-dihydro-5H-benzo[e][1,4]diazepin-5-one]",24.4 ± 3.2
11,"O=C1NCC(c2ccc(Cl)c(Cl)c2)=Nc2ccccc21 [Compound H17, 2-(3,4-Dichlorophenyl)-3,4-dihydro-5H-benzo[e][1,4]diazepin-5-one]",34.4 ± 3.6
12,"O=C1NCC(c2ccc3ccccc3c2)=Nc2ccccc21 [Compound H18, 2-(Naphthalen-2-yl)-3,4-dihydro-5H-benzo[e][1,4]diazepin-5-one]",35.9 ± 2.2
13,"COc1ccc(C2CNC(=O)c3ccccc3N2)cc1 (stereo not drawn) [Compound H20, 2-(4-Methoxyphenyl)-1,2,3,4-tetrahydro-5H-benzo[e][1,4]diazepin-5-one]",27.9 ± 1.8
14,"COc1cccc(C2CNC(=O)c3ccccc3N2)c1 (stereo not drawn) [Compound H21, 2-(3-Methoxyphenyl)-1,2,3,4-tetrahydro-5H-benzo[e][1,4]diazepin-5-one]",27.3 ± 2.3
15,"O=C1NCC(c2ccc(F)cc2)Nc2ccccc21 (stereo not drawn) [Compound H22, 2-(4-Fluorophenyl)-1,2,3,4-tetrahydro-5H-benzo[e][1,4]diazepin-5-one]",33 ± 3
16,"O=C1NCC(c2cccc(F)c2)Nc2ccccc21 (stereo not drawn) [Compound H23, 2-(3-Fluorophenyl)-1,2,3,4-tetrahydro-5H-benzo[e][1,4]diazepin-5-one]",32.1 ± 1.6
17,"O=C1NCC(c2ccc(F)cc2F)Nc2ccccc21 (stereo not drawn) [Compound H24, 2-(2,4-Difluorophenyl)-1,2,3,4-tetrahydro-5H-benzo[e][1,4]diazepin-5-one]",34.8 ± 2.1
18,"O=C1NCC(c2cc(F)cc(F)c2)Nc2ccccc21 (stereo not drawn) [Compound H25, 2-(3,5-Difluorophenyl)-1,2,3,4-tetrahydro-5H-benzo[e][1,4]diazepin-5-one]",39.2 ± 4.5
19,"COc1ccc(C2CNC(=O)c3ccccc3N2)cc1OC (stereo not drawn) [Compound H26, 2-(3,4-Dimethoxyphenyl)-1,2,3,4-tetrahydro-5H-benzo[e][1,4]diazepin-5-one]",37.4 ± 3.9
20,"O=C1NCC(c2ccc(Br)cc2)Nc2ccccc21 (stereo not drawn) [Compound H27, 2-(4-Bromophenyl)-1,2,3,4-tetrahydro-5H-benzo[e][1,4]diazepin-5-one]",43.2 ± 2.5
21,"CN1CC(c2ccc(Br)cc2)Nc2ccccc2C1=O (stereo not drawn) [Compound H28, 2-(4-Bromophenyl)-4-methyl-1,2,3,4-tetrahydro-5H-benzo[e][1,4]diazepin-5-one]",24 ± 5.7
22,"CN1CC(c2ccc(Br)cc2)N(C)c2ccccc2C1=O (stereo not drawn) [Compound H29, 2-(4-Bromophenyl)-1,4-dimethyl-1,2,3,4-tetrahydro-5H-benzo[e][1,4]diazepin-5-one]",22.1 ± 3.2
23,"CC1NC(=O)c2ccccc2N=C1c1ccc(Br)cc1 (stereo not drawn) [Compound H30, 2-(4-Bromophenyl)-3-methyl-3,4-dihydro-5H-benzo[e][1,4]diazepin-5-one]",39.8 ± 4.2
24,"CC1NC(=O)c2ccccc2NC1c1ccc(Br)cc1 (stereo not drawn) [Compound H31, 2-(4-Bromophenyl)-3-methyl-1,2,3,4-tetrahydro-5H-benzo[e][1,4]diazepin-5-one]",28.5 ± 3.4
25,"O=C1NCC(c2ccc(-c3ccc(C(F)(F)F)cc3)cc2)=Nc2ccccc21 [Compound H44, 2-(4′-(Trifluoromethyl)-[1,1′-biphenyl]-4-yl)-3,4-dihydro-5H-benzo[e][1,4]diazepin-5-one]",45.1 ± 5.2
26,"CN1CC=C(c2ccc(C3=Nc4ccccc4C(=O)NC3)cc2)CC1 [Compound H45, 2-(4-(1-Methyl-1,2,3,6-tetrahydropyridin-4-yl)phenyl)-3,4-dihydro-5H-benzo[e][1,4]diazepin-5-one]",42.5 ± 6
27,"O=C1NCC(c2ccc(-c3ccc4[nH]c5ccccc5c4c3)cc2)=Nc2ccccc21 [Compound H46, 2-(4-(9H-carbazol-3-yl)phenyl)-3,4-dihydro-5H-benzo[e][1,4]diazepin-5-one]",14.9 ± 8.2
28,"Nc1cccc(-c2ccc(C3CNC(=O)c4ccccc4N3)cc2)c1 (stereo not drawn) [Compound H47, 2-(3′-Amino-[1,1′-biphenyl]-4-yl)-1,2,3,4-tetrahydro-5H-benzo[e][1,4]diazepin-5-one]",48.7 ± 5.7

# Other lines, results leading:
row,inhibition at 0.05 µM [%],SMILES
1,37.1 ± 2.7,"Cc1ccc(C2=Nc3ccccc3C(=O)NC2)cc1 [Compound H5, 2-(p-Tolyl)-3,4-dihydro-5H-benzo[e][1,4]diazepin-5-one]"
2,31.9 ± 1.2,"COc1ccc(C2=Nc3ccccc3C(=O)NC2)cc1 [Compound H6, 2-(4-Methoxyphenyl)-3,4-dihydro-5H-benzo[e][1,4]diazepin-5-one]"
3,34.7 ± 2.9,"COc1cccc(C2=Nc3ccccc3C(=O)NC2)c1 [Compound H7, 2-(3-Methoxyphenyl)-3,4-dihydro-5H-benzo[e][1,4]diazepin-5-one]"
4,32.1 ± 3.6,"O=C1NCC(c2ccc(F)cc2)=Nc2ccccc21 [Compound H8, 2-(4-Fluorophenyl)-3,4-dihydro-5H-benzo[e][1,4]diazepin-5-one]"
5,33 ± 2.4,"O=C1NCC(c2ccc(Cl)cc2)=Nc2ccccc21 [Compound H10, 2-(4-Chlorophenyl)-3,4-dihydro-5H-benzo[e][1,4]diazepin-5-one]"
6,37.9 ± 2.3,"O=C1NCC(c2ccc(O)cc2)=Nc2ccccc21 [Compound H13, 2-(4-Hydroxyphenyl)-3,4-dihydro-5H-benzo[e][1,4]diazepin-5-one]"
7,38.4 ± 1.9,"O=C1NCC(c2ccc(Br)cc2)=Nc2ccccc21 [Compound H19, 2-(4-Bromophenyl)-3,4-dihydro-5H-benzo[e][1,4]diazepin-5-one]"
8,48.6 ± 1.2,"O=C1NCC(c2ccc(-c3cn[nH]c3)cc2)=Nc2ccccc21 [Compound H32, 2-(4-(1H-pyrazol-4-yl)phenyl)-3,4-dihydro-5H-benzo[e][1,4]diazepin-5-one]"
9,46.5 ± 3.2,"Cn1cc(-c2ccc(C3=Nc4ccccc4C(=O)NC3)cc2)cn1 [Compound H33, 2-(4-(1-Methyl-1H-pyrazol-4-yl)phenyl)-3,4-dihydro-5H-benzo[e][1,4]diazepin-5-one]"
10,44.3 ± 6.2,"Cn1nccc1-c1ccc(C2=Nc3ccccc3C(=O)NC2)cc1 [Compound H35, 2-(4-(1-Methyl-1H-pyrazol-5-yl)phenyl)-3,4-dihydro-5H-benzo[e][1,4]diazepin-5-one]"
11,40.8 ± 4.7,"Nc1cccc(-c2ccc(C3=Nc4ccccc4C(=O)NC3)cc2)c1 [Compound H36, 2-(3'-Amino-[1,1'-biphenyl]-4-yl)-3,4-dihydro-5H-benzo[e][1,4]diazepin-5-one]"
12,46.1 ± 3.9,"Nc1ccc(-c2ccc(C3=Nc4ccccc4C(=O)NC3)cc2)cc1 [Compound H37, 2-(4′-Amino-[1,1′-biphenyl]-4-yl)-3,4-dihydro-5H-benzo[e][1,4]diazepin-5-one]"
13,34.7 ± 4.2,"Nc1ccc(-c2ccc(C3=Nc4ccccc4C(=O)NC3)cc2)cn1 [Compound H38, 2-(4-(6-Aminopyridin-3-yl)phenyl)-3,4-dihydro-5H-benzo[e][1,4]diazepin-5-one]"
14,33.9 ± 5.3,"Nc1ncc(-c2ccc(C3=Nc4ccccc4C(=O)NC3)cc2)cn1 [Compound H39, 2-(4-(2-Aminopyrimidin-5-yl)phenyl)-3,4-dihydro-5H-benzo[e][1,4]diazepin-5-one]"
15,35.4 ± 2.4,"COc1ncc(-c2ccc(C3=Nc4ccccc4C(=O)NC3)cc2)cc1N [Compound H40, 2-(4-(5-Amino-6-methoxypyridin-3-yl)phenyl)-3,4-dihydro-5H-benzo[e][1,4]diazepin-5-one]"
16,28.3 ± 8.8,"COc1cccc(-c2ccc(C3=Nc4ccccc4C(=O)NC3)cc2)c1 [Compound H41, 2-(3′-Methoxy-[1,1′-biphenyl]-4-yl)-3,4-dihydro-5H-benzo[e][1,4]diazepin-5-one]"
17,41.4 ± 3.5,"O=C1NCC(c2ccc(-c3cccc(C(F)(F)F)c3)cc2)=Nc2ccccc21 [Compound H43, 2-(3′-(Trifluoromethyl)-[1,1′-biphenyl]-4-yl)-3,4-dihydro-5H-benzo[e][1,4]diazepin-5-one]"
